These results are taken from US20240016783A1 (Icahn School of Medicine at Mount Sinai, priority 2020, published 2024).

For one data set, the system named is rodents. The following applies: through clustering of dendritic spines; cited from earlier work.
For a further data set, the system named is rodent models. The following applies: cited from earlier work.
Data set [1] concerns mouse model of AD (SXFAD). The following applies: early-onset aggressive mouse model of AD (SXFAD); cited from earlier work.
Data set [2] relates to Alzheimer's disease patients. The following applies: in vivo.

With `Nc1nc2ccc(OC(F)(F)F)cc2s1` [Riluzole, 2-Amino-6-(trifluoromethoxy)benzothiazole], in the data set on rodents, the Age-related cognitive decline result is “can prevent age-related cognitive decline”. The “Gene expression profiles related to aging and AD” value in the data set on rodent models is “rescues gene expression profiles related to aging and AD”. Also, in data set [1], the “Gene expression changes in immune pathways” value is reported as “reversed many of the gene expression changes in immune pathways” and the “Hippocampal-dependent spatial memory decline” value is “prevented hippocampal-dependent spatial memory decline”. In addition, in data set [2] (human, 6 months), the Abdominal discomfort is 15.4%, the “Adverse event that led to removal from the trial” value was found to be 15.4%, the Cough is recorded as 19.23% and the Diarrhea was found to be 15.4%. In data set [2] (human, 6 months), the Dizziness stood at 15.4%, the Elevated liver enzymes is on record as 7.7%, the Nausea amounted to 7.7% and the “Patients having at least one adverse event during the study” value is given as 88.5%. Also, in data set [2] (human, 6 months), the Serious adverse events was determined as 7.7% and the Urinary frequency turned out to be 11.5%. In addition, the “Difference in adverse events between treatment groups” value in data set [2] is “no statistical differences”.
